Test results from publication PMC12856912, “Structure-Guided Semisynthesis of Blasticidin S–Amicetin Chimeras as Selective Ribosome Inhibitors” (Journal of the American Chemical Society, 2026).
In brackets after ≈: the same amount, converted by molar mass. Where two headings read alike, the source gives them in different places.

Legend:
S. aureus ATCC 6538P = assay: Antibacterial MIC assay, serial dilution; assay type: cell-based, Staphylococcus aureus; conditions: for Selectivity index (CC50/MIC) S. aureus 6538P: CC50 Vero cells / MIC; for MIC: Staphylococcus aureus, ATCC 6538P / ATCC 6539P, read-out: MIC S. aureus ATCC 6539P
Description: (§1) Media and solutions were autoclaved or sterile filtered prior to use and mani pulations were carri ed out in a laminar flow hood. Antibacterial t esting was performed in polypropylene 96-well flat bottom plates. The minimal inhibitory concentration of blasticidin S (1) hydrochloride, methyl ester (3) trihydrochloride, P10 (2) tri-T FA , phenet hyl amide (4) tri -T FA , an d blastimidines M 19– 22, A, 29–32, P 37–40, and C 43–46 (salt forms as described in the te xt) were assessed against Staphylococcus aureus ΔNorA, S. aureus ATCC 6538P, methicillin-resistant S. aureus (MRSA) ATCC 43300, Enterococcus faecalis ATCC 29212, vancomycin- resistant Enterococcus, Klebsiella pneumoniae ATCC 29665, Pseudomonas aeruginosa,and Acinetobacter baumannii ATCC 17978 using serial dilutions. Doxycycline (Gold Bio) as a positive control and the vehicle as a negative control. Stock solutions of each compound were prepared at 2.56 mg/mL in 50% DMSO/water and serially diluted in 50% DMSO/water to create master plates. From the master plates, 10 μ L o f each dilution was applied to test plates using a Bravo automated liquid transfer system (Agilent).
(§2) Bacteria previously grown overnight (37 °C, 120–200 RPM), in LB broth were diluted to an OD600 of 0.05 in cation-adjusted Mueller-Hinton broth (CAMHB), grown to an OD600 of ~0.5, and diluted to an OD600 of 0.004 in CAMHB . These diluted cultures were applied to the test plates (190 μL per test well) resulting in final concentrations of the test compounds of 128–1 μg/ m L.
(§3) Growth controls (wells with inoculated media but no vehicle or test compounds) were included to assess any potential toxicity from the vehicle. Th e plates were in cubated at 37 °C for 16–18 h, except fo r VRE and E. faecalis, which w ere in cub ated at 37 °C fo r 24 h. Inh ibition was determined by measuring the optical density at 600 nm (OD60 0) with a Cytation 3 pl ate read er (BioTek). The optical density measurem ents were no rmalized to the positive and negative controls and the vehicle and growth controls were compared and found to b e indistinguishable, indicating no toxicity from […]
(§4) the vehicle used. The MIC was the lowest concentration that inhibited >90% of growth. Two biological replicates were performed in duplicate. MIC values are reported as a range from […]

S. aureus ΔNorA = assay: Antibacterial MIC assay, serial dilution; assay type: cell-based, Staphylococcus aureus; conditions: for Selectivity index (CC50/MIC) S. aureus ΔNorA: CC50 Vero cells / MIC; for MIC: Staphylococcus aureus, read-out: MIC S. aureus ∆NorA
Description: as §1, §2, §3, §4

MRSA ATCC 43300 = assay: Antibacterial MIC assay, serial dilution; assay type: cell-based, Staphylococcus aureus; conditions: for Selectivity index (CC50/MIC) MRSA 43300: CC50 Vero cells / MIC; for MIC: Staphylococcus aureus, read-out: MIC MRSA ATCC 43300
Description: as §1, §2, §3, §4

[1] = test system: Escherichia coli BAA-2452; assay: Antibacterial MIC assay, serial dilution; assay type: cell-based; conditions: BAA2452, read-out: MIC Escherichia coli BAA-2452
[2] = test system: Methicillin resistant S. aureus (MRSA) USA300; assay: Antibacterial MIC assay, serial dilution; assay type: cell-based, Staphylococcus aureus; conditions: for Selectivity index (CC50/MIC) MRSA USA300: CC50 Vero cells / MIC; for MIC: Staphylococcus aureus, read-out: MIC Methicillin resistant S. aureus (MRSA) USA300
[3] = test system: Methicillin resistant Staphylococcus epidermidis (MRSE) ATCC 35984 NRS101; assay: Antibacterial MIC assay, serial dilution; assay type: cell-based; conditions: for Selectivity index (CC50/MIC) MRSE 35984: CC50 Vero cells / MIC; for MIC: Staphylococcus epidermidis, read-out: MIC Methicillin resistant Staphylococcus epidermidis (MRSE) ATCC 35984 NRS101
[4] = Cytotoxicity assay (MTS/PMS); assay type: cell-based; conditions: monkey, 24 h treatment, MTS/PMS, average of three biological replicates, read-out: CC50 against Vero cells
Description: The potential cytotoxic eff ect of the test compounds was investigated using Vero cells (monkey kidney epitheli al cells) following est ablished protocols.3 Briefly, Vero cells were plated into 96-well plates supplemented with Dulbecco's Modified Eagle Medium (DMEM) containing 10% fetal bovine serum (FBS). The cells were placed in a humidified 37 °C environment for incubation with 5% CO₂ for 24 h to allow proper adherence and growth. Following the incubation period, the culture medium was replaced with fresh DMEM containing serial dilutions of the test compounds, while the v ehicle alon e w as used as a negative control. The treated cells were incubated for an additional 24 h. To assess cell viability, the MTS/PMS reagent was added to each well and incubat ed for 4 h. A microplate reader (S ynergy H1, BioTek, USA) was used to m easure absorbance at 490 nm. Al l experiments wer e cond ucted usingthree biologi cal replicates .
Ta b l e S2. CC50 valuesa (µg/mL) against Vero cells […]
aValues at which the cell viability (normalized to vehicle control) was 50%. […]

[5] = test system: Vancomycin resistant E. faecalis NR-31972 (VRE); assay: Antibacterial MIC assay, serial dilution; assay type: cell-based, Enterococcus faecalis; conditions: for Selectivity index (CC50/MIC) VRE NR-31972: CC50 Vero cells / MIC; for MIC: Enterococcus faecalis, VRE, 24 h, read-out: MIC Vancomycin resistant E. faecalis NR-31972 (VRE)
Description: as §1, §2, §3, §4

[6] = test system: Vancomycin resistant Enterococcus faecium NR-31909 (VRE); assay: Antibacterial MIC assay, serial dilution; assay type: cell-based; conditions: for Selectivity index (CC50/MIC) VRE NR-31909: CC50 Vero cells / MIC; for MIC: Enterococcus faecium, VRE, 24 h, read-out: MIC Vancomycin resistant Enterococcus faecium NR-31909 (VRE)
Description: as §1, §2, §3, §4

Pseudomonas aeruginosa = assay: Antibacterial MIC assay, serial dilution; assay type: cell-based; conditions: for Selectivity index (CC50/MIC) P. aeruginosa: CC50 Vero cells / MIC; for MIC: Pseudomonas aeruginosa, range from biological replicates, read-out: MIC P. aeruginosa
Description: as §1, §2, §3, §4

[7] = test system: Enterococcus faecalis ATCC 29212; assay: Antibacterial MIC assay, serial dilution; assay type: cell-based; conditions: for Selectivity index (CC50/MIC) E. faecalis 29212: CC50 Vero cells / MIC; for MIC: Enterococcus faecalis, ATCC 29112 / ATCC 29212, 24 h, read-out: MIC E. faecalis ATCC 29112
Description: as §1, §2, §3, §4

[8] = test system: Klebsiella pneumoniae ATCC 29665; assay: Antibacterial MIC assay, serial dilution; assay type: cell-based; conditions: for Selectivity index (CC50/MIC) K. pneumoniae: CC50 Vero cells / MIC; for MIC: Klebsiella pneumoniae, ATCC29665, range from biological replicates, read-out: MIC K. pneumoniae ATCC-29665
Description: as §1, §2, §3, §4

[9] = test system: Acinetobacter baumannii ATCC 17978; assay: Antibacterial MIC assay, serial dilution; assay type: cell-based; conditions: ATCC17978, range from biological replicates
Description: as §1, §2, §3, §4

[10] = Vero cells (monkey kidney epithelial cells)

SMILES | Selectivity index (CC50/MIC) S. aureus 6538P (S. aureus ATCC 6538P) | MIC (S. aureus ATCC 6538P) [µg/mL] | Selectivity index (CC50/MIC) S. aureus ΔNorA (S. aureus ΔNorA) | MIC (S. aureus ΔNorA) [µg/mL] | Selectivity index (CC50/MIC) MRSA 43300 (MRSA ATCC 43300) | MIC (MRSA ATCC 43300) [µg/mL] | MIC [1] [µg/mL] | Selectivity index (CC50/MIC) MRSA USA300 [2] | MIC [2] [µg/mL] | Selectivity index (CC50/MIC) MRSE 35984 [3] | MIC [3] [µg/mL] | Selectivity index (CC50/MIC) VRE NR-31972 [5] | MIC [5] [µg/mL] | MIC [6] [µg/mL] | Selectivity index (CC50/MIC) P. aeruginosa (Pseudomonas aeruginosa) | MIC (Pseudomonas aeruginosa) [µg/mL] | Selectivity index (CC50/MIC) E. faecalis 29212 [7] | MIC [7] [µg/mL] | MIC [8] [µg/mL] | MIC [9] [µg/mL] | further results
COC(=O)[C@H]1O[C@@H](n2ccc(NC(=O)c3ccc(N)cc3)nc2=O)C=C[C@@H]1NC(=O)C[C@@H](N)CCN(C)C(=N)N [Blastimidine M2] | 7.9 | 16 (≈ 28.8 µM) | 5.9 | 16 to 32 (≈ 28.8 to 57.6 µM) | 7.9 | 16 (≈ 28.8 µM) | 32 (≈ 57.6 µM) | 16 | 8 (≈ 14.4 µM) | 7.9 | 16 (≈ 28.8 µM) | 4.0 | 32 (≈ 57.6 µM) | 128 (≈ 230 µM) | <1.0 | > 128 | 16 | 8 (≈ 14.4 µM) | 64 (≈ 115 µM) | > 128 | CC50 at 24 h [4]: 126 µg/mL (≈ 227 µM); Selectivity index (CC50/MIC) VRE NR-31909 [6]: 1.0; Selectivity index (CC50/MIC) K. pneumoniae [8]: 2.0
COC(=O)[C@H]1O[C@@H](n2ccc(NC(=O)c3ccc(NC(C)=O)cc3)nc2=O)C=C[C@@H]1NC(=O)C[C@@H](N)CCN(C)C(=N)N [Blastimidine M4] | 9.9 | 16 to 32 (≈ 26.8 to 53.5 µM) | 6.6 | 32 (≈ 53.5 µM) | 6.6 | 32 (≈ 53.5 µM) | 64 (≈ 107 µM) | 3.3 | 64 (≈ 107 µM) | 3.3 | 64 (≈ 107 µM) | 3.3 | 64 (≈ 107 µM) | 128 (≈ 214 µM) | <1.6 | > 128 | 6.6 | 32 (≈ 53.5 µM) | 32 (≈ 53.5 µM) | > 128 | CC50 at 24 h [4, 10]: 210 µg/mL (≈ 351 µM); Selectivity index (CC50/MIC) VRE NR-31909 [6]: 1.6; Selectivity index (CC50/MIC) K. pneumoniae [8]: 6.6
COC(=O)[C@H]1O[C@@H](n2ccc(NC(=O)c3ccc(NC(=O)[C@@](C)(N)CO)cc3)nc2=O)C=C[C@@H]1NC(=O)C[C@@H](N)CCN(C)C(=N)N [Blastimidine M5] | 2.3 | 64 (≈ 97.5 µM) | 2.3 | 64 (≈ 97.5 µM) | 2.3 | 64 (≈ 97.5 µM) | 32 (≈ 48.7 µM) | 2.3 | 64 (≈ 97.5 µM) | 2.3 | 64 (≈ 97.5 µM) | 2.3 | 64 (≈ 97.5 µM) | 16 to 32 (≈ 24.4 to 48.7 µM) | <1.2 | > 128 | 2.3 | 64 (≈ 97.5 µM) | 32 to 64 (≈ 48.7 to 97.5 µM) | > 128 | CC50 at 24 h [4, 10]: 150 µg/mL (≈ 228 µM); Selectivity index (CC50/MIC) VRE NR-31909 [6]: 6.3; Selectivity index (CC50/MIC) K. pneumoniae [8]: 3.5
CN(CC[C@H](N)CC(=O)N[C@H]1C=C[C@H](n2ccc(N)nc2=O)O[C@@H]1C(=O)NCCc1ccccc1)C(=N)N [Blastimidine P1, blasticidin S phenethylamide] | 15 | 16 (≈ 30.4 µM) | 1.8 | 128 (≈ 244 µM) | 7.3 | 32 (≈ 60.9 µM) | > 128 | 20 | 8 to 16 (≈ 15.2 to 30.4 µM) | 59 | 4 (≈ 7.61 µM) | 15 | 16 (≈ 30.4 µM) | 128 (≈ 244 µM) | 2.8 | 64 to 128 (≈ 122 to 244 µM) | 15 | 16 (≈ 30.4 µM) | > 128 | > 128 | CC50 at 24 h [4, 10]: 235 µg/mL (≈ 447 µM); Selectivity index (CC50/MIC) VRE NR-31909 [6]: 1.8
CN(CC[C@H](N)CC(=O)N[C@H]1C=C[C@H](n2ccc(NC(=O)c3ccc(N)cc3)nc2=O)O[C@@H]1C(=O)NCCc1ccccc1)C(=N)N [Blastimidine P2] | >12 | 16 to 32 (≈ 24.8 to 49.6 µM) | >32 | 8 (≈ 12.4 µM) | >4.0 | 64 (≈ 99.3 µM) | 128 (≈ 199 µM) | >8.0 | 32 (≈ 49.6 µM) | >16 | 16 (≈ 24.8 µM) | >16 | 16 (≈ 24.8 µM) | 128 (≈ 199 µM) | >2.0 | 128 (≈ 199 µM) | >32 | 8 (≈ 12.4 µM) | > 128 | > 128 | CC50 at 24 h [4, 10]: > 256 µg/mL; Selectivity index (CC50/MIC) VRE NR-31909 [6]: >2.0
CC(=O)Nc1ccc(C(=O)Nc2ccn([C@H]3C=C[C@H](NC(=O)C[C@@H](N)CCN(C)C(=N)N)[C@@H](C(=O)NCCc4ccccc4)O3)c(=O)n2)cc1 [Blastimidine P4] | >8.0 | 32 (≈ 46.6 µM) | >24 | 8 to 16 (≈ 11.6 to 23.3 µM) | >2.0 | 128 (≈ 186 µM) | > 128 | >4.0 | 64 (≈ 93.2 µM) | >16 | 16 (≈ 23.3 µM) | >8.0 | 32 (≈ 46.6 µM) | > 128 | >2.0 | 128 (≈ 186 µM) | >8.0 | 32 (≈ 46.6 µM) | > 128 | > 128 | CC50 at 24 h [4, 10]: > 256 µg/mL
